{"source": "patent US20100292205A1", "about": "“Pyrimidone Compounds As GSK-3 Inhibitors” (PFIZER INC., priority 2006, published 2010)", "data": [{"target": "T1, Recombinant human GSK3β (Homo sapiens, UniProt P49841)", "T1 construct": "His-tag; made in house; host or cells: Sf9 insect cells / baculovirus", "T1 sequence (P49841 whole entry)": "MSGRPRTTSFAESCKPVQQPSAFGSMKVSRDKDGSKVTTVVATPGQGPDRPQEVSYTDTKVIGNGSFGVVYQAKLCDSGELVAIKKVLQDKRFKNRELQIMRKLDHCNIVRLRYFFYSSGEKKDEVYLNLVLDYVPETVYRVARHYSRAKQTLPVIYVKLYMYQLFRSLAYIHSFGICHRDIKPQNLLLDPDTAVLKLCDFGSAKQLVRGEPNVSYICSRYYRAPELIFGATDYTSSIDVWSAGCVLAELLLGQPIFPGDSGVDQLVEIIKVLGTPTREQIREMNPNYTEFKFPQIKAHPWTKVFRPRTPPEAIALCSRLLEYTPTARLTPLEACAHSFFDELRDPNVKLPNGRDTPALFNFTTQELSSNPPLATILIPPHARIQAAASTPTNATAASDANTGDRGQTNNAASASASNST", "experiment": "GSK-3β (Glycogen Synthase Kinase) cell free enzyme assay", "assay_type": "biochemical", "settings": "1 μM; Examples 236-262; read-out: Percent inhibition at 1 μM", "method_in_brief": "(§1)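 This cell-free kinase assay measured [33P] transfer from [33P]ATP gamma phosphate into the biotinylated peptide bio-LC-S-R-H-S-S-P-H-Q-pS-E-D-E-E-E-OH. After 60 min at RT, reactions were stopped with 0.66 volume of PBS lacking Ca or Mg containing 12.5 mM EDTA, 0.25% Triton-X 100, 125 uM ATP and 6.2 mg/ml streptavidin SPA beads. Bead-bound radioactivity was counted as CPM on a Trilux scintillation counter.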", "units": {"inhibition at 1 µM": "%"}, "values": [{"smiles": "Cn1c(NCC2CCN(Cc3ccccc3)C2)nc(-c2ccncc2)cc1=O", "note": "(stereo not shown) [Example 261, 2-{[(1-Benzylpyrrolidin-3-yl)methyl]amino}-3-methyl-6-pyridin-4-ylpyrimidin-4(3H)-one]", "inhibition at 1 µM": 70}, {"smiles": "Cn1c(N[C@@H]2CC[C@@H](NCc3ccccc3)C2)nc(-c2ccncc2)cc1=O", "note": "[Example 262, 2-{[(1R,3R)-3-(Benzylamino)cyclopen-tyl]amino}-3-methyl-6-pyridin-4-ylpyrimidin-4(3H)-one]", "inhibition at 1 µM": 48}]}, {"target": "T1, Recombinant human GSK3β", "experiment": "GSK-3β (Glycogen Synthase Kinase) cell free enzyme assay", "assay_type": "biochemical", "settings": "cell free enzyme assay; Examples 265-291", "method_in_brief": "as §1", "units": {"IC50": "nM"}, "values": [{"smiles": "CCc1cn2nc(N3C[C@@H]4[C@H](C3)[C@H]4N(C)c3nc(-c4ccncc4F)cc(=O)n3C)ccc2n1", "note": "[Example 265, 2-{[(1R,5S,6s)-3-(2-Ethylimidazo[1,2-b]pyridazin-6-yl)-3-azabicyclo[3.1.0]hex-6-yl](methyl)amino}-6-(3-fluoropyridin-4-yl)-3-methylpyrimidin-4(3H)-one]", "IC50": 52.4}, {"smiles": "CN(c1nc(-c2ccncc2F)cc(=O)n1C)[C@H]1[C@@H]2CN(c3nc4cc(F)ccc4n3C)C[C@@H]21", "note": "[Example 266, 2-{[(1R,5S,6s)-3-(5-Fluoro-1-methyl-1H-benzimidazol-2-yl)-3-azabicyclo[3.1.0]hex-6-yl](methyl)amino}-6-(3-fluoropyridin-4-yl)-3-methylpyrimidin-4(3H)-one]", "IC50": 16.7}, {"smiles": "COc1ccc2oc(N3C[C@@H]4[C@H](C3)[C@H]4N(C)c3nc(-c4ccncc4F)cc(=O)n3C)nc2c1", "note": "[Example 267, 6-(3-Fluoropyridin-4-yl)-2-{[(1R,5S,6s)-3-(5-methoxy-1,3-benzoxazol-2-yl)-3-azabicyclo[3.1.0]hex-6-yl](methyl)amino}-3-methylpyrimidin-4(3H)-one]", "IC50": 14.2}, {"smiles": "CN(c1nc(-c2ccncc2F)cc(=O)n1C)[C@H]1[C@@H]2CN(c3nc(C(F)(F)F)c(C(=O)OCc4ccccc4)s3)C[C@@H]21", "note": "[Example 268, Benzyl 2-[(1R,5S,6s)-6-{[4-(3-fluoropyridin-4-yl)-1-methyl-6-oxo-1,6-dihydropyrimidin-2-yl](methyl)amino}-3-azabicyclo[3.1.0]hex-3-yl]-4-(trifluoromethyl)-1,3-thiazole-5-carboxylate]", "IC50": 126}, {"smiles": "CN(c1nc(-c2ccncc2F)cc(=O)n1C)[C@H]1[C@@H]2CN(c3nc4ccc(F)cc4n3C)C[C@@H]21", "note": "[Example 269, 2-{[(1R,5S,6s)-3-(6-Fluoro-1-methyl-1H-benzimidazol-2-yl)-3-azabicyclo[3.1.0]hex-6-yl](methyl)amino}-6-(3-fluoropyridin-4-yl)-3-methylpyrimidin-4(3H)-one]", "IC50": 18.8}, {"smiles": "CN(c1nc(-c2ccncc2F)cc(=O)n1C)[C@H]1[C@@H]2CN(c3nc4ccccc4o3)C[C@@H]21", "note": "[Example 270, 2-{[(1R,5S,6s)-3-[1,3-Benzoxazol-2-yl)-3-azabicyclo[3.1.0]hex-6-yl](methyl)amino}-6-(3-fluoropyridin-4-yl)-3-methylpyrimidin-4(3H)-one]", "IC50": 24.6}, {"smiles": "CN(c1nc(-c2ccncc2F)cc(=O)n1C)[C@H]1[C@@H]2CN(c3nnnn3Cc3ccc(C#N)cc3)C[C@@H]21", "note": "[Example 271, 4-({5-[(1R,5S,6s)-6-{[4-(3-Fluoropyridin-4-yl)-1-methyl-6-oxo-1,6-dihydropyrimidin-2-yl](methyl)amino}-3-azabicyclo[3.1.0]hex-3-yl]-1H-tetrazol-1-yl}methyl)benzonitrile]", "IC50": 8.8}, {"smiles": "CN(c1nc(-c2ccncc2F)cc(=O)n1C)[C@H]1[C@@H]2CN(c3nc4ccccc4[nH]3)C[C@@H]21", "note": "[Example 272, 2-{[(1R,5S,6s)-3-(1H-Benzimidazol-2-yl)-3-azabicyclo[3.1.0]hex-6-yl](methyl)amino}-6-(3-fluoropyridin-4-yl)-3-methylpyrimidin-4(3H)-one]", "IC50": 76.1}, {"smiles": "CCOCCn1nnnc1N1C[C@@H]2[C@H](C1)[C@H]2N(C)c1nc(-c2ccncc2F)cc(=O)n1C", "note": "[Example 273, 2-[{(1R,5S,6s)-3-[1-(2-Ethoxyethyl)-1H-tetrazol-5-yl]-3-azabicyclo[3.1.0]hex-6-yl}(methyl)amino]-6-(3-fluoropyridin-4-yl)-3-methylpyrimidin-4(3H)-one]", "IC50": 29}, {"smiles": "Cc1nnc2c(N3C[C@@H]4[C@H](C3)[C@H]4N(C)c3nc(-c4ccncc4F)cc(=O)n3C)nc(-c3ccccc3)cn12", "note": "[Example 274, 6-(3-Fluoropyridin-4-yl)-3-methyl-2-{methyl[(1R,5S,6s)-3-(3-methyl-6-phenyl[1,2,4]triazolo[4,3-a]pyrazin-8-yl)-3-azabicyclo[3.1.0]hex-6-yl]amino}pyrimidin-4(3H)-one]", "IC50": 234}, {"smiles": "CN(c1nc(-c2ccncc2F)cc(=O)n1C)[C@H]1[C@@H]2CN(c3nnnn3-c3ccccc3F)C[C@@H]21", "note": "[Example 275, 2-[{(1R,5S,6s)-3-[1-(2-Fluorophenyl)-1H-tetrazol-5-yl]-3-azabicyclo[3.1.0]hex-6-yl}(methyl)amino]-6-(3-fluoropyridin-4-yl)-3-methylpyrimidin-4(3H)-one]", "IC50": 1.12}, {"smiles": "CCOC(=O)c1cccc(-n2nnnc2N2C[C@@H]3[C@H](C2)[C@H]3N(C)c2nc(-c3ccncc3F)cc(=O)n2C)c1", "note": "[Example 276, Ethyl 3-{5-[(1R,5S,6s)-6-{[4-(3-fluoropyridin-4-yl)-1-methyl-6-oxo-1,6-dihydropyrimidin-2-yl](methyl)amino}-3-azabicyclo[3.1.0]hex-3-yl]-1H-tetrazol-1-yl}benzoate]", "IC50": 6.21}, {"smiles": "Cc1nn(C2CCCC2)c2nc(N3C[C@@H]4[C@H](C3)[C@H]4N(C)c3nc(-c4ccncc4F)cc(=O)n3C)[nH]c(=O)c12", "note": "[Example 277, 1-Cyclopentyl-6-[(1R,5S,6s)-6-{[4-(3-fluoropyridin-4-yl)-1-methyl-6-oxo-1,6-dihydropyrimidin-2-yl](methyl)amino}-3-azabicyclo[3.1.0]hex-3-yl]-3-methyl-1,5-dihydro-4H-pyrazolo[3,4-d]pyrimidin-4-one]", "IC50": 51.7}, {"smiles": "CC(C)Cc1nn(C)c2c(=O)[nH]c(N3C[C@@H]4[C@H](C3)[C@H]4N(C)c3nc(-c4ccncc4F)cc(=O)n3C)nc12", "note": "[Example 278, 5-[(1R,5S,6s)-6-{[4-(3-Fluoropyridin-4-yl)-1-methyl-6-oxo-1,6-dihydropyrimidin-2-yl](methyl)amino}-3-azabicyclo[3.1.0]hex-3-yl]-3-isobutyl-1-methyl-1,6-dihydro-7H-pyrazolo[4,3-d]pyrimidin-7-one]", "IC50": 109}, {"smiles": "CN(c1nc(-c2ccncc2F)cc(=O)n1C)[C@H]1[C@@H]2CN(c3nnnn3C)C[C@@H]21", "note": "[Example 279, 6-(3-Fluoropyridin-4-yl)-3-methyl-2-{methyl[(1R,5S,6s)-3-(1-methyl-1H-tetrazol-5-yl)-3-azabicyclo[3.1.0]hex-6-yl]amino}pyrimidin-4(3H)-one]", "IC50": 58.6}, {"smiles": "CN(c1nc(-c2ccncc2F)cc(=O)n1C)[C@H]1[C@@H]2CN(c3nnnn3CC3CC3)C[C@@H]21", "note": "[Example 280, 2-[{(1R,5S,6s)-3-[1-(Cyclopropylmethyl)-1H-tetrazol-5-yl]-3-azabicyclo[3.1.0]hex-6-yl}(methyl)amino]-6-(3-fluoropyridin-4-yl)-3-methylpyrimidin-4(3H)-one]", "IC50": 4.48}, {"smiles": "CN(c1nc(-c2ccncc2F)cc(=O)n1C)[C@H]1[C@@H]2CN(c3nc4cc(C(F)(F)F)ccc4[nH]3)C[C@@H]21", "note": "[Example 281, 6-(3-Fluoropyridin-4-yl)-3-methyl-2-(methyl{(1R,5S,6s)-3-[5-(trifluoromethyl)-1H-benzimidazol-2-yl]-3-azabicyclo[3.1.0]hex-6-yl}amino)pyrimidin-4(3H)-one]", "IC50": 36.3}, {"smiles": "CC(C)n1nnnc1N1C[C@@H]2[C@H](C1)[C@H]2N(C)c1nc(-c2ccncc2F)cc(=O)n1C", "note": "[Example 282, 6-(3-Fluoropyridin-4-yl)-2-{[(1R,5S,6s)-3-(1-isopropyl-1H-tetrazol-5-yl)-3-azabicyclo[3.1.0]hex-6-yl](methyl)amino}-3-methylpyrimidin-4(3H)-one]", "IC50": 3.25}, {"smiles": "CN(c1nc(-c2ccncc2F)cc(=O)n1C)[C@H]1[C@@H]2CN(c3nc4ccccc4s3)C[C@@H]21", "note": "[Example 283, 2-{[(1R,5S,6s)-3-(1,3-Benzothiazol-2-yl)-3-azabicyclo[3.1.0]hex-6-yl](methyl)amino}-6-(3-fluoropyridin-4-yl)-3-methylpyrimidin-4(3H)-one]", "IC50": 55.7}, {"smiles": "CN(c1nc(-c2ccncc2F)cc(=O)n1C)[C@H]1[C@@H]2CN(c3nnnn3C3CCCC3)C[C@@H]21", "note": "[Example 284, 2-{[(1R,5S,6s)-3-(1-Cyclopentyl-1H-tetrazol-5-yl)-3-azabicyclo[3.1.0]hex-6-yl](methyl)amino}-6-(3-fluoropyridin-4-yl)-3-methylpyrimidin-4(3H)-one]", "IC50": 12.5}, {"smiles": "Cc1nc(N2C[C@@H]3[C@H](C2)[C@H]3N(C)c2nc(-c3ccncc3F)cc(=O)n2C)n2nc(-c3ccccc3Cl)c(I)c2n1", "note": "[Example 285, 2-[{(1R,5S,6s)-3-[7-(2-Chlorophenyl)-8-iodo-2-methylpyrazolo[1,5-a][1,3,5]triazin-4-yl]-3-azabicyclo[3.1.0]hex-6-yl}(methyl)amino]-6-(3-fluoropyridin-4-yl)-3-methylpyrimidin-4(3H)-one]", "IC50": 5670}, {"smiles": "CCOc1cccc(-n2nnnc2N2C[C@@H]3[C@H](C2)[C@H]3N(C)c2nc(-c3ccncc3F)cc(=O)n2C)c1", "note": "[Example 286, 2-[{(1R,5S,6s)-3-[1-(3-Ethoxyphenyl)-1H-tetrazol-5-yl]-3-azabicyclo[3.1.0]hex-6-yl}(methyl)amino]-6-(3-fluoropyridin-4-yl)-3-methylpyrimidin-4(3H)-one]", "IC50": 3.2}, {"smiles": "COCC(C)n1nnnc1N1C[C@@H]2[C@H](C1)[C@H]2N(C)c1nc(-c2ccncc2F)cc(=O)n1C", "note": "(stereo partly drawn) [Example 287, 6-(3-Fluoropyridin-4-yl)-2-[{(1R,5S,6s)-3-[1-(2-methoxy-1-methylethyl)-1H-tetrazol-5-yl]-3-azabicyclo[3.1.0]hex-6-yl}(methyl)amino]-3-methylpyrimidin-4(3H)-one]", "IC50": 3.06}]}]}
